The text below walks through data of paper PMC4550478, “Metronidazole-triazole conjugates: Activity against Clostridium difficile and parasites” (European Journal of Medicinal Chemistry, 2015).

Converted amounts (≈) assume the structure as drawn.

Data set [1] deals with C. difficile NAP1/027 CD26A54_R. Further details: method as in PMID 24400070. The conditions noted are these: cited from earlier work.
The nature of data set [2]: Cytotoxicity, resazurin, HEK293. The class given is cell-based. The conditions noted are these: human. As for the experimental part:
(§1) Compounds were tested for cytotoxicity against mammalian HepG2 and HEK293 cell lines, as detailed in the supplementary information.
(§2) HEK293 and HepG2 cells were seeded as 3000 and 5000 cells per well in 384-well plates, respectively. Cells were cultured in DMEM with 1% FBS for 24 hours at 37 °C, 5% CO2. Then a dilution series of compounds was added into each well, with the highest concentration of 100 µM. […] After 24 hours incubation with the compounds, 5 µM resazurin were added into each well and incubated at 37 °C for 2 hours. As a negative control, 1% Triton X-100 was added into the culture media to lyse all the cells. The fluorescence intensity was read using Polarstar Omega with excitation/emission 560/590. The data was analysed by GraphPad Prism software. Results are presented as the average percentage of control ± SD using the following equation: Percentage of Growth = (FITEST – FINegative/FIUNTREATED –FINegative)*100.

Data set [3] can be described thus: Cytotoxicity, resazurin, HepG2. Format: cell-based. As to conditions: human. On the procedure: as §1, §2
In general terms: Resazurin is reduced to fluorescent resorufin, in cell work by metabolically active cells.

Data set [4] concerns C. difficile NAP1/027 CD26A54_R. The data set can be described thus: Metronidazole E-test on BAKHS, C. difficile CD26A54_R. Format: cell-based, Clostridium difficile. As to conditions: BAKHS agar; for MIC: Clostridioides difficile. On the procedure:
(§3) Mid-log phase (OD600 =0.5- 0.6) culture was diluted to a 0.5 McFarland standard (OD600~ 0.1) in prereduced broth. The diluted culture was inoculated onto duplicate BAKHS agar plate using a cotton tip applicator. The inoculum was allowed to dry before the Metronidazole E-test strip (Metronidazole MZH 256-S30, bioMérieux Australia) was placed in duplicate on the surface of the agar. The agar plate was inverted and incubated for up to 96 hr. The MIC was read as the point at which the elliptical zone of inhibition intercepted the E-test strip at 24, 48 and 96 hr.

The conditions of data set [5]: in vivo; cited from earlier work.
The subject of data set [6] is C. difficile NAP1/027 CD26A54_S. The data set can be described thus: Metronidazole E-test on BAKHS, C. difficile CD26A54_S. Format: cell-based, Clostridium difficile. The conditions noted are these: Clostridioides difficile, BAKHS agar. As for the experimental part:
as §3

For data set [7], the system named is H. pylori clinical isolate 13/61. The data set can be described thus: Metronidazole E-test, H. pylori 13/61. Format: cell-based. As to conditions: Helicobacter pylori. As for the experimental part:
(§4) Helicobacter pylori strains, with a range of resistance levels to metronidazole (256 µg/ml, 64 µg/ml, 24 µg/ml, 2 µg/ml, and 0.04 µg/ml), were selected and obtained from Helicobacter Research Laboratory, University of Western Australia. The resistance strength to metronidazole was recorded according to eTest (bioMérieux). H. pylori strain 26695 was used as the control. H. pylori was maintained on the non-selective Columbia blood agar plates (CBA) (Columbia agar base Oxoid) with 5% horse blood and incubated at 37 °C and 10% CO2 for 48 hrs. […] Each of the H. pylori strains were harvested, OD600 calibrated to 0.3, and spotted in triplicate on CBA pre-mixed with the compound. The lowest concentration of antibiotic showing no growth was read as the MIC. The experiment was performed in duplicate.

The subject of data set [8] is C. difficile NAP1/027 CD26A54_R. Further details: method as in PMID 24400070. As to conditions: cited from earlier work. The source holds these as a separate data set.
Data set [9] relates to ESKAPE bacteria: S. aureus MRSA (ATCC 43300), E. coli (ATCC 25922), K. pneumoniae (ATCC 700603), A. baumannii (ATCC 19606) and P. aeruginosa (ATCC 27853). The data set can be described thus: MIC against ESKAPE pathogens, aerobic. The class given is cell-based. The conditions noted are these: aerobic conditions, single concentration screen, n = 3. On the procedure: All compounds were tested for activity against a set of anaerobic C. difficile bacteria (630 ATCC BAA-1382, NAP1/027 M7404, NAP1/027 ATCC BAA-1803, VPI10463 ATCC 43255, CD26A54_S and CD26A54_R) and representative ESKAPE pathogens S. aureus (MRSA ATCC 43300), E. coli (ATCC 25922), K. pneumoniae (ATCC 700603), A. baumannii (ATCC 19606) and P. aeruginosa (ATCC 27853) using a standard broth microdilution assay. Selected compounds were tested for activity against H. pylori strains (26695, and clinical isolates MtzS 13/25, MtzR 98/285 and MtzR 13/61) using agar plate dilution, and for antimicrobial activity against twelve Gram-positive bacterial strains: Enterococcus faecalis (VanA clinical isolate), Enterococcus faecium (MDR VanA ATCC 51559), Streptococcus pneumoniae (MDR ATCC 700677), S. aureus (MRSA ATCC 43300, MRSA clinical isolate, MRSA/DRSA clinical isolate, GISA NARSA NRS 1, GISA NARSA NRS 17, VRSA NARSA VRS1, VRSA NARSA VRS4 and VRSA NARSA VRS10) using broth microdilution. C. difficile strains were grown at 37 °C in a COY anaerobic chamber (5% H2, 10% CO2, 85% N2). H. pylori strains were grown at 37 °C under a microaerobic atmosphere (5% O2, 10% CO2). All facultative anaerobic bacteria were grown at 37 °C with normal atmospheric oxygen levels. […] Positive growth control of bacteria and DMSO as well as a negative control of only media were included for every plate. Full assay details are provided in the supplementary information.
MICs were determined by a two-fold serial broth micro dilution according to the recommendation of CLSI standards with an inoculum of 5 × 10^5 CFU/mL^4 The compounds along with standard antibiotics were serially diluted twofold across the wells of 96-well non-binding surface plates (NBS, Corning). […] Gram-positive and Gram-negative bacteria were cultured in Mueller Hinton broth (MHB) (Bacto laboratories, Cat. no. 211443) at 37 °C overnight. A sample of each culture was then diluted 40-fold in fresh MHB broth and incubated at 37 °C for 2-3 h. The resultant mid-log phase cultures were diluted to the final concentration of 5 × 10^5 CFU/mL, then 50 μL was added to each well of the compound containing 96-well plates. All the plates were covered and incubated at 37 °C for 24 h.

The test system of data set [10] is C. difficile NAP1/027 ATCC BAA-1803. The data set can be described thus: Metronidazole E-test on BAKHS, C. difficile ATCC BAA-1803. Format: cell-based, Clostridium difficile. The conditions noted are these: Clostridioides difficile, ATCCBAA1803, BAKHS agar. As for the experimental part:
as §3

Data set [11] has as its system H. pylori clinical isolate 13/25. In words: Metronidazole E-test, H. pylori 13/25. The class given is cell-based. The conditions noted are these: Helicobacter pylori. As for the experimental part: as §4

As a reminder, the CC50 is the concentration that lowers cell viability or growth by half. A word on the MIC: it is the lowest concentration that inhibits growth of the organism. `Cc1ncc([N+](=O)[O-])n1CCO` [Compound 1, metronidazole]: the “Metronidazole MIC by E-test, MtzR C. difficile, reported by Chong et al.” value in data set [1] is over 32 µg/mL. The half-maximal cytotoxic concentration (CC50) at 24 h in data set [2] and in data set [3] was over 100 µM each time. For the same compound, the “Metronidazole E-test MIC CD26A54_R” value in [4] (48 hrs) is reported as 48 µg/mL. In addition, the MIC was determined as 32 µg/mL (≈ 187 µM) in [4] (24 hrs); 48 µg/mL (≈ 280 µM) in data set [4] (48 hrs); 48 µg/mL (≈ 280 µM) in data set [4] (96 hrs); 6 µg/mL (≈ 35.1 µM) in [6] (24 hrs); 8 µg/mL (≈ 46.7 µM) in data set [6] (48 hrs); 8 µg/mL (≈ 46.7 µM) in data set [6] (96 hrs). The minimum inhibitory concentration (MIC) was determined as 256 µg/mL (≈ 1500 µM) in data set [7]; 2 µg/mL (≈ 11.7 µM) in data set [10] (24 hrs); 2 µg/mL (≈ 11.7 µM) in [10] (48 hrs); 2 µg/mL (≈ 11.7 µM) in data set [10] (96 hrs); 2 µg/mL (≈ 11.7 µM) in [11]. Moreover, the oral bioavailable in data set [5] is listed as 100%. Besides, the “MIC to metronidazole in broth, MtzR C. difficile, reported by Chong et al.” value in data set [8] was 8 µg/mL (≈ 46.7 µM). In addition, in data set [9], the “MIC ESKAPE bacteria” value is over 32 µg/mL.
Turning to `Cc1ncc([N+](=O)[O-])n1CCN=[N+]=[N-]` [Compound 3, 1-(2-azidoethyl)-2-methyl-5-nitro-1H-imidazole], the CC50 at 24 h in data set [2] (no cytotoxicity up to 100 μM, 24 hours incubation, read-out: CC50 HEK293) is over 100 µM; in data set [3] (no cytotoxicity up to 100 μM, 24 hours incubation, read-out: CC50 HepG2), over 100 µM. In addition, the “MIC ESKAPE bacteria” value in data set [9] was over 32 µg/mL.
